Test results published in US20260226493A1, “HERBICIDE RESISTANT PLANTS” (SYNGENTA CROP PROTECTION AG, priority 2023, published 2026).

Tests used:
[1] = system: Arabidopsis thaliana BIO3-BIO1 (BioDA) mutants; test: BIO3-BIO1 mutant enzyme activity in the presence of herbicide, percentage inhibition (fluorometric DAPA assay); type: biochemical
Summary of the method: (§1)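 Percentage inhibition compares activity at one of three herbicide concentrations against DMSO, from o-phthalaldehyde-derivatised DAPA fluorescence (ex 410, em 470 nm). Purified N-His BIO3-BIO1 variants (50 nM, E. coli-expressed) saw herbicide 10 min at 20 °C in pH 8.6 EPPS buffer, then 20 μM KAPA plus 100 μM spermidine for 75 min at 20 °C.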

[2] = molecular target: T1, Arabidopsis thaliana BIO3-BIO1 (BioDA) mutants (Arabidopsis thaliana, UniProt B0F481); test: as above; type: biochemical
T1 construct: with the predicted N-terminal mitochondrial transit peptide removed; 6xHis-tag (N); thrombin cleavage site (N); made in house; host or cells: E. coli BL21 (DE3) bioA
Summary of the method: as §1

[3] = read-out: percentage inhibition

T1 sequence (B0F481 23-833, change not shown): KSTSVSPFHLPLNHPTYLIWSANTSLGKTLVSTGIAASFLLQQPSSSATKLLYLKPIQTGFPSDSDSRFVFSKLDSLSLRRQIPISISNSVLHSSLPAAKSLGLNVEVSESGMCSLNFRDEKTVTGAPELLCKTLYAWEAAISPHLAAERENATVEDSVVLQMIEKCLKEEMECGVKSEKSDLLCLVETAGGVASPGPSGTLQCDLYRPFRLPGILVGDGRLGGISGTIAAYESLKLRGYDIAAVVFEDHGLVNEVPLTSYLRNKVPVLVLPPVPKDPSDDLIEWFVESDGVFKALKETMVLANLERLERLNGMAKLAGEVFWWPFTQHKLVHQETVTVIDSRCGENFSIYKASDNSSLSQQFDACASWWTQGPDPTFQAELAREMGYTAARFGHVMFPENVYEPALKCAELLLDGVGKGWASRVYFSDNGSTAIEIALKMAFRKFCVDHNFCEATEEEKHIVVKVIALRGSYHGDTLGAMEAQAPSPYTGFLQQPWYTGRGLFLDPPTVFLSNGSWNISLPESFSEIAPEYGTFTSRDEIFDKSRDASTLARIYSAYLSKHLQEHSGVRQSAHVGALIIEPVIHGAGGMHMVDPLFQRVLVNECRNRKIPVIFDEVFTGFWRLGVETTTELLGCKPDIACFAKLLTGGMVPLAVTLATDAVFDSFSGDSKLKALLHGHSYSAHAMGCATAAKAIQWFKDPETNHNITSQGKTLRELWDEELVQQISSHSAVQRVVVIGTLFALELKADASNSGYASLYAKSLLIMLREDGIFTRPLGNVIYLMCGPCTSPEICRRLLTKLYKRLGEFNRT

CCn1c(Cn2ccc(C(F)(F)F)n2)cc(=O)c(C(=O)O)c1-c1ccc(Cl)c(Cl)c1 [Compound L, 2-(3,4-dichlorophenyl)-1-ethyl-4-oxo-6-[[3-(trifluoromethyl)pyrazol-1-yl]methyl]pyridine-3-carboxylic acid]
percentage inhibition ([1]; variant Q517F, 0.01 μM): 0%
percentage inhibition ([1]; variant Q517F, 0.075 μM): 17%
percentage inhibition ([1]; variant Q517F, 0.5 μM): 54%
percentage inhibition ([1]; variant Q517H, 0.01 μM): 0%
percentage inhibition ([1]; variant T393V, 0.01 μM): 9%
percentage inhibition ([1]; variant T393V, 0.075 μM): 19%
percentage inhibition ([1]; variant T393V, 0.5 μM): 65%
percentage inhibition ([1]; variant T512C, 0.01 μM): 0%
percentage inhibition ([1]; variant T512C, 0.075 μM): 18%
percentage inhibition ([1]; variant T512C, 0.5 μM): 69%
percentage inhibition ([1]; variant T512D, 0.01 μM): 24%
percentage inhibition ([1]; variant T512D, 0.075 μM): 23%
percentage inhibition ([1]; variant T512D, 0.5 μM): 58%
percentage inhibition ([1]; variant T512G, 0.01 μM): 0%
percentage inhibition ([1]; variant T512G, 0.075 μM): 0%
percentage inhibition ([1]; variant T512G, 0.5 μM): 20%
percentage inhibition ([1]; variant T512I, 0.01 μM): 2%
percentage inhibition ([1]; variant T512I, 0.075 μM): 15%
percentage inhibition ([1]; variant T512I, 0.5 μM): 29%
percentage inhibition ([1]; variant T512N, 0.01 μM): 15%
percentage inhibition ([1]; variant T512N, 0.075 μM): 37%
percentage inhibition ([1]; variant T512N, 0.5 μM): 76%
percentage inhibition ([1]; variant T512Q, 0.01 μM): 3%
percentage inhibition ([1]; variant T512Q, 0.075 μM): 35%
percentage inhibition ([1]; variant T512Q, 0.5 μM): 74%
percentage inhibition ([1]; variant T512R, 0.01 μM): 27%
percentage inhibition ([1]; variant T512R, 0.075 μM): 61%
percentage inhibition ([1]; variant T512R, 0.5 μM): 91%
percentage inhibition ([1]; variant T512V, 0.01 μM): 33%
percentage inhibition ([1]; variant T512V, 0.075 μM): 57%
percentage inhibition ([1]; variant T512V, 0.5 μM): 83%
percentage inhibition ([1]; variant T512W, 0.01 μM): 18%
percentage inhibition ([1]; variant T512W, 0.075 μM): 0%
percentage inhibition ([1]; variant T512W, 0.5 μM): 31%
percentage inhibition ([1]; variant V354A, 0.01 μM): 6%
percentage inhibition ([1]; variant V354A, 0.075 μM): 0%
percentage inhibition ([1]; variant V354A, 0.5 μM): 47%
percentage inhibition ([1]; variant V354E, 0.01 μM): 4%
percentage inhibition ([1]; variant V354E, 0.075 μM): 19%
percentage inhibition ([1]; variant V354E, 0.5 μM): 35%
percentage inhibition ([1]; variant V354L, 0.01 μM): 0%
percentage inhibition ([1]; variant V354L, 0.075 μM): 16%
percentage inhibition ([1]; variant V354L, 0.5 μM): 63%
percentage inhibition ([1]; variant V354T, 0.01 μM): 0%
percentage inhibition ([1]; variant V354T, 0.075 μM): 7%
percentage inhibition ([1]; variant V354T, 0.5 μM): 89%
percentage inhibition ([1]; variant W391L, 0.01 μM): 24%
percentage inhibition ([1]; variant W391L, 0.075 μM): 10%
percentage inhibition ([1]; variant W391L, 0.5 μM): 16%
percentage inhibition ([1]; variant W391M, 0.01 μM): 0%
percentage inhibition ([1]; variant W391M, 0.075 μM): 16%
percentage inhibition ([1]; variant W391M, 0.5 μM): 30%
percentage inhibition ([1]; variant W392C, 0.01 μM): 2%
percentage inhibition ([1]; variant W392C, 0.075 μM): 12%
percentage inhibition ([1]; variant W392C, 0.5 μM): 13%
percentage inhibition ([1]; variant W392D, 0.01 μM): 19%
percentage inhibition ([1]; variant W392D, 0.075 μM): 59%
percentage inhibition ([1]; variant W392D, 0.5 μM): 85%
percentage inhibition ([1]; variant W392G, 0.01 μM): 0%
percentage inhibition ([1]; variant W392G, 0.075 μM): 2%
percentage inhibition ([1]; variant W392G, 0.5 μM): 0%
percentage inhibition ([1]; variant W392M, 0.01 μM): 0%
percentage inhibition ([1]; variant W392M, 0.075 μM): 10%
percentage inhibition ([1]; variant W392M, 0.5 μM): 8%
percentage inhibition ([1]; variant W392S, 0.01 μM): 0%
percentage inhibition ([1]; variant W392S, 0.075 μM): 3%
percentage inhibition ([1]; variant W392S, 0.5 μM): 0%
percentage inhibition ([1]; variant Y511C, 0.01 μM): 0%
percentage inhibition ([1]; variant Y511C, 0.075 μM): 3%
percentage inhibition ([1]; variant Y511C, 0.5 μM): 44%
percentage inhibition ([1]; variant Y511D, 0.01 μM): 20%
percentage inhibition ([1]; variant Y511D, 0.075 μM): 29%
percentage inhibition ([1]; variant Y511D, 0.5 μM): 51%
percentage inhibition ([1]; variant Y511E, 0.01 μM): 0%
percentage inhibition ([1]; variant Y511E, 0.075 μM): 0%
percentage inhibition ([1]; variant Y511E, 0.5 μM): 33%
percentage inhibition ([1]; variant Y511F, 0.01 μM): 48%
percentage inhibition ([1]; variant Y511F, 0.075 μM): 65%
percentage inhibition ([1]; variant Y511F, 0.5 μM): 86%
percentage inhibition ([1]; variant Y511I, 0.01 μM): 21%
percentage inhibition ([1]; variant Y511I, 0.075 μM): 27%
percentage inhibition ([1]; variant Y511I, 0.5 μM): 28%
percentage inhibition ([1]; variant Y511M, 0.01 μM): 0%
percentage inhibition ([1]; variant Y511M, 0.075 μM): 27%
percentage inhibition ([1]; variant Y511M, 0.5 μM): 76%
percentage inhibition ([1]; variant Y511P, 0.01 μM): 10%
percentage inhibition ([1]; variant Y511P, 0.075 μM): 26%
percentage inhibition ([1]; variant Y511P, 0.5 μM): 63%
percentage inhibition ([1]; variant Y511Q, 0.01 μM): 0%
percentage inhibition ([1]; variant Y511Q, 0.075 μM): 6%
percentage inhibition ([1]; variant Y511Q, 0.5 μM): 28%
percentage inhibition ([1]; variant Y511R, 0.01 μM): 15%
percentage inhibition ([1]; variant Y511R, 0.075 μM): 7%
percentage inhibition ([1]; variant Y511R, 0.5 μM): 34%
percentage inhibition ([1]; variant Y511V, 0.01 μM): 0%
percentage inhibition ([1]; variant Y511V, 0.075 μM): 5%
percentage inhibition ([1]; variant Y511V, 0.5 μM): 49%
percentage inhibition ([1]; variant Y511W, 0.01 μM): 11%
percentage inhibition ([1]; variant Y511W, 0.075 μM): 22%
percentage inhibition ([1]; variant Y511W, 0.5 μM): 50%
inhibition at 0.01 µM [2, 3]: 6%
inhibition at 0.075 µM [2, 3]: 44%
inhibition at 0.5 µM [2, 3]: 83%

CCOC(=O)c1nn(-c2ccc3c(c2)OC(F)(F)C(F)(F)O3)c2cccc(C(C)=O)c2c1=O [Compound A, ethyl 5-acetyl-4-oxo-1-(2,2,3,3-tetrafluoro-1,4-benzodioxin-6-yl)cinnoline-3-carboxylate]
percentage inhibition ([1]; variant Q517M, 1 μM): 38%
percentage inhibition ([1]; variant W392A, 1 μM): 53%

CCn1c(-c2ccc(Cl)c(Cl)c2)c(C(=O)O)c(=O)c2cc(F)ccc21 [Compound M, 2-(3,4-dichlorophenyl)-1-ethyl-6-fluoro-4-oxo-quinoline-3-carboxylic acid]
percentage inhibition ([2]; WT (SEQ ID NO 294), 0.1 μM herbicide): 23%
inhibition at 0.2 µM [2, 3]: 23%
